Values of other authors in patent US20240374540A1, “FORMULATIONS FOR THE TREATMENT OF OCULAR SURFACE DISEASES AND RELATED METHODS” (priority 2016, published 2024).

Tested on: AQP5
Conditions: human airway epithelial cells (A459 cells)

## Nc1c(Br)cc(Br)cc1CN[C@H]1CC[C@H](O)CC1 [ambroxol, Ambroxol]
  expression of AQP5: stimulate the expression of AQP5
